Seven compounds from US20110098180A1, “Herbicide-Resistant Plants, And Polynucleotides And Methods For Providing Same” (United States Department of Agriculture, priority 2002, published 2011) can be followed below.

pIC50: −log10 of the molar value.

For this assay, the target named is hydrilla PDS position 304 Arginine, His-tagged (Hydrilla verticillata, UniProt Q66PY0). Briefly: Cross-resistance testing, His-tagged column-purified PDS (Table 2A). It is filed as biochemical. Particulars: for R/S: Arginine at 304 (reference), Table 2A; for pIC50: Arginine at 304, His-tagged, column-purified PDS, read-out: I50. The text has this: The alternative approach utilized His-tagging and column purification of the mutant PDS protins.
Chain of hydrilla PDS position 304 Arginine, His-tagged (Q66PY0 77-580): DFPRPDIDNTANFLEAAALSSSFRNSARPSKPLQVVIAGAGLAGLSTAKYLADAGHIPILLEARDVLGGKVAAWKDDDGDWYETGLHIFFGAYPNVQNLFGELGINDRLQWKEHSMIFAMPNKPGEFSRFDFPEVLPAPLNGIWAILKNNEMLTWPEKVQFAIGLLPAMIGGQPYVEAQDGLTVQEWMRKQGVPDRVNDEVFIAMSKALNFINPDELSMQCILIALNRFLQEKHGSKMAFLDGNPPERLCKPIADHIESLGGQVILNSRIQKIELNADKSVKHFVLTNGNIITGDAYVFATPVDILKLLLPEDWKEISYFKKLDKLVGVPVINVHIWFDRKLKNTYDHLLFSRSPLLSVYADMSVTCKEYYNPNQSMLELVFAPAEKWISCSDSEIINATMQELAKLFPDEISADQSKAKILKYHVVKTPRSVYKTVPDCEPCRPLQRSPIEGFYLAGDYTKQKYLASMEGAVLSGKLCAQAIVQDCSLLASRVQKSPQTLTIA
In order to express pds in bacteria, deletion clones were made for each of the three potential start codons with and without ATG. […] The forward primers used were ORF (5′ […] 3′), ORF-ATG (5′ […] 3′), 3_ORF (5′[…] 3′) and 3_ORF-ATG (5′ […] 3′). The resulting plasmids were named pORF, pORF-ATG (minus ATG codon), p3ORF and p3ORF-ATG. The pds-containing EcoRI-fragments of these plasmids were subcloned into the EcoRI site of pRSETb vector (Invitrogen) for Histidine tagging and bacterial expression. The resulting constructs were pHy4SET, pHy4SET-ATG (minus ATG), p3ORFSET and p3ORFSET-ATG.
Primers used to replace Arg by His were Hyd-His-For (5′[…] 3′) and Hyd-His-Rev (5′ […] 3′); to replace Arg by Thr we used primers Hyd-Thr-For (5′[…] 3′) and Hyd-Thr-Rev (5′[…] 3′); to replace Arg by Ser we used Hyd-Ser-For (5′[…] 3′) and Hyd-Ser-Rev (5′[…] 3′); and Arg was replaced by Cys using Hyd-Cys-For (5′[…] 3′) and Hyd-Cys-Rev (5′[…] 3′). Resulting plasmids were named: p3ORFHisSet-ATG, p3ORFThrSet-ATG, p3ORFSerSet-ATG and p3ORFCysSet-ATG.
All pRSET derived constructs were transformed into BL21(DE3)pLysS cells (Invitrogen), induced with IPTG for protein expression, and the His tag overproduced proteins analyzed by Western blot using Anti-HisG antibody (Invitrogen, cat. #R940-25).
BL21(DE3)pLysS cells were grown overnight in 500 ml Luria Broth (LB) supplemented with carbenicillin (100 mg/l) and cloramphenicol (60 mg/l) at 37° C., and induced with 0.3 mM isopropylthio-β-D-galactoside (IPTG) for 3 hrs. Cells were lysed using a French press (Spectronics Instrument) at 20,000 psi and overexpressed PDS was purified on a nickel activated Hitrap Chelating HP column according to the manufacturers instructions (Amersham Bioscience).
Generally, PDS protein fractions prepared as described above (Non-His-tagged and His-tagged) were mixed with a soluble fraction from phytoene-producing E. coli cells. […] This E. coli strain was separately cultured and lysed, and its soluble components collected (“the EB extract”) in a fashion similar to that described above for the PDS-producing cells.
His-tagged, purified proteins prepared as described above were transferred to the assay buffer on a PD10 column (Amersham Bioscience) and the concentration was adjusted to 100 μg/mL. Crude extracts containing phytoene were produced in E. coli JM101/pACCRT-EB containing geranylgeranyl pyrophosphate synthase and phytoene synthase enzymes from Erwinia uredova as described above. The reaction assays consisted of 50 μg PDS in 500 μl of assay buffer (200 mM Sodium Phosphate, pH 7.2) and 500 μl of pACCRT-EB extract. The herbicide (10 μL in MeOH) was added to the 500 μl of PDS extract and incubated on ice for 15 minutes prior to mixing it with the EB extract. […] Dose-response curves were fitted to the four-parameter logistic function. […] I^50 values were calculated from the regressions.

For `CCC(Oc1ccc(F)c(C(F)(F)F)c1)C(=O)NCc1ccccc1` (centres unmarked) [Beflubutamid], the R/S is recorded as 1 and the pIC50 was 4.14.

Consider `O=C(Nc1ccc(F)cc1F)c1cccnc1Oc1cccc(C(F)(F)F)c1` [Diflufenican], for which the pIC50 is 4.00. The same compound had a R/S (30 min) of 1.

On to `O=C1C(Cl)C(CCl)CN1c1cccc(C(F)(F)F)c1` (centres unmarked) [Fluorochloridone], for which the pIC50 was 3.89. The same compound gave a R/S (30 min) of 1.

With `CNC1=C(c2cccc(C(F)(F)F)c2)C(=O)C(c2ccccc2)O1` (centres unmarked) [Flurtamone], the pIC50 is 3.52. Under “30 min”, this compound yielded a R/S of 1.

Take `CNc1cnn(-c2cccc(C(F)(F)F)c2)c(=O)c1Cl` [Norflurazon]: the pIC50 was 4.30.

For `O=C(Nc1ccc(F)cc1)c1cccc(Oc2cccc(C(F)(F)F)c2)n1` [Piconilafen, Picolinafen], the pIC50 was 3.49.

With Fluridone, where the note is “30 min”, the R/S turned out to be 1.
